Results on 10 compounds are retold here after ChEMBL document CHEMBL5131495, “Discovery of unique thiazolidinone-conjugated coumarins as novel broad spectrum antibacterial agents” (Eur J Med Chem, 2022).

Holding throughout (assay type): functional
Experiment [1] concerns Staphylococcus aureus. Put plainly: Antibacterial activity against Staphylococcus aureus assessed as inhibition of bacterial growth.
Experiment [2] concerns Staphylococcus aureus. Nature of the experiment: Antibacterial activity against methicillin resistant Staphylococcus aureus N315 assessed as inhibition of bacterial growth.
Experiment [3] relates to Enterococcus faecalis. Nature of the experiment: Antibacterial activity against Enterococcus faecalis assessed as inhibition of bacterial growth.
Experiment [4] concerns Staphylococcus aureus. Nature of the experiment: Antibacterial activity against Staphylococcus aureus ATCC 25923 assessed as inhibition of bacterial growth.
For experiment [5], the system named is Staphylococcus aureus. Put plainly: Antibacterial activity against Staphylococcus aureus ATCC 29213 assessed as inhibition of bacterial growth.
In experiment [6] the test system is Klebsiella pneumoniae. Put plainly: Antibacterial activity against Klebsiella pneumoniae assessed as inhibition of bacterial growth.
Experiment [7] relates to Escherichia coli. Nature of the experiment: Antibacterial activity against Escherichia coli assessed as inhibition of bacterial growth.
In experiment [8] the test system is Escherichia coli. Put plainly: Antibacterial activity against Escherichia coli ATCC 25922 assessed as inhibition of bacterial growth.
Experiment [9] deals with Pseudomonas aeruginosa. Nature of the experiment: Antibacterial activity against Pseudomonas aeruginosa assessed as inhibition of bacterial growth.
For experiment [10], the system named is Pseudomonas aeruginosa. Nature of the experiment: Antibacterial activity against Pseudomonas aeruginosa ATCC 27853 assessed as inhibition of bacterial growth.
For experiment [11], the system named is Acinetobacter baumannii. Nature of the experiment: Antibacterial activity against Acinetobacter baumannii assessed as inhibition of bacterial growth.

Converted amounts (≈) assume the structure as drawn.

In the case of `Cc1cc(=O)oc2cc(/N=C3/S/C(=C\c4ccc([N+](=O)[O-])cc4)C(=O)N3CCO)ccc12`, the MIC (as a rule, the least concentration at which growth counts as inhibited) in experiment [1] came out at 64 µg/mL (≈ 142 µM); in experiment [2] it was 32 µg/mL (≈ 70.9 µM); in [3], 32 µg/mL (≈ 70.9 µM); in experiment [4], 128 µg/mL (≈ 284 µM); in experiment [5], 64 µg/mL (≈ 142 µM); in [6] it was 64 µg/mL (≈ 142 µM). Moreover, the minimum inhibitory concentration (MIC) in experiment [7] is 128 µg/mL (≈ 284 µM); in [8] it was 64 µg/mL (≈ 142 µM); in [9] it was 64 µg/mL (≈ 142 µM); in [10], 128 µg/mL (≈ 284 µM); in experiment [11] it was 32 µg/mL (≈ 70.9 µM).
As to `Cc1cc(=O)oc2cc(/N=C3/SCC(=O)N3CCO)ccc12`, the MIC in experiment [1] turned out to be 128 µg/mL (≈ 402 µM); in experiment [2] it was 128 µg/mL (≈ 402 µM); in [3] it was 128 µg/mL (≈ 402 µM); in experiment [4], 16 µg/mL (≈ 50.3 µM); in [5], 64 µg/mL (≈ 201 µM); in experiment [6], 128 µg/mL (≈ 402 µM). For the same compound, the minimal inhibitory concentration (MIC) stood at 2 µg/mL (≈ 6.28 µM) in experiment [7]; 64 µg/mL (≈ 201 µM) in experiment [8]; 128 µg/mL (≈ 402 µM) in experiment [9]; 32 µg/mL (≈ 101 µM) in [10]; 0.5 µg/mL (≈ 1.57 µM) in [11].
`Cc1ccc(/C=C2\S/C(=N/c3ccc4c(C)cc(=O)oc4c3)N(CCO)C2=O)cc1`: the MIC in [1] amounted to 64 µg/mL (≈ 152 µM); in [2], 128 µg/mL (≈ 304 µM); in [3] it was 256 µg/mL (≈ 609 µM); in experiment [4], 256 µg/mL (≈ 609 µM); in experiment [5], 128 µg/mL (≈ 304 µM); in experiment [6] it was 256 µg/mL (≈ 609 µM). Moreover, the minimal inhibitory concentration (MIC) in [7] turned out to be 128 µg/mL (≈ 304 µM); in experiment [8], 256 µg/mL (≈ 609 µM); in experiment [9], 128 µg/mL (≈ 304 µM); in experiment [10] it was 32 µg/mL (≈ 76.1 µM); in experiment [11], 8 µg/mL (≈ 19 µM).
Consider `Cc1cc(=O)oc2cc(/N=C3/S/C(=C\c4csc5ccccc45)C(=O)N3CCO)ccc12`, for which the MIC in experiment [1] turned out to be 128 µg/mL (≈ 277 µM); in experiment [2] it was 128 µg/mL (≈ 277 µM); in experiment [3], 64 µg/mL (≈ 138 µM); in [4] it was 256 µg/mL (≈ 553 µM); in experiment [5], 128 µg/mL (≈ 277 µM); in experiment [6], 32 µg/mL (≈ 69.2 µM). Further, the minimal inhibitory concentration (MIC) in experiment [7] worked out at 128 µg/mL (≈ 277 µM); in experiment [8], 64 µg/mL (≈ 138 µM); in experiment [9], 128 µg/mL (≈ 277 µM); in [10] it was 64 µg/mL (≈ 138 µM); in experiment [11] it was 8 µg/mL (≈ 17.3 µM).
As to `Cc1cc(=O)oc2cc(/N=C3/S/C(=C\c4ccc(C(F)(F)F)cc4)C(=O)N3CCO)ccc12`, the minimum inhibitory concentration (MIC) in [1] stood at 128 µg/mL (≈ 270 µM); in experiment [2], 256 µg/mL (≈ 540 µM); in experiment [3], 256 µg/mL (≈ 540 µM); in experiment [4], 64 µg/mL (≈ 135 µM); in experiment [5], 256 µg/mL (≈ 540 µM); in experiment [6] it was 128 µg/mL (≈ 270 µM). In addition, the MIC in experiment [7] was found to be 128 µg/mL (≈ 270 µM); in experiment [8] it was 256 µg/mL (≈ 540 µM); in experiment [9] it was 32 µg/mL (≈ 67.4 µM); in [10], 256 µg/mL (≈ 540 µM); in experiment [11], 32 µg/mL (≈ 67.4 µM).
In the case of `Cc1cc(=O)oc2cc(/N=C3/S/C(=C\c4ccco4)C(=O)N3CCO)ccc12`, the minimum inhibitory concentration (MIC) in [1] was found to be 128 µg/mL (≈ 323 µM); in experiment [2] it was 8 µg/mL (≈ 20.2 µM); in [3], 16 µg/mL (≈ 40.4 µM); in experiment [4], 256 µg/mL (≈ 646 µM); in experiment [5] it was 32 µg/mL (≈ 80.7 µM); in experiment [6], 128 µg/mL (≈ 323 µM). The MIC in experiment [7] was found to be 128 µg/mL (≈ 323 µM); in [8] it was 4 µg/mL (≈ 10.1 µM); in [9] it was 64 µg/mL (≈ 161 µM); in experiment [10], 32 µg/mL (≈ 80.7 µM); in experiment [11] it was 1 µg/mL (≈ 2.52 µM).
For the compound `Cc1cc(=O)oc2cc(/N=C3/S/C(=C\c4cccc(Cl)c4)C(=O)N3CCO)ccc12`, the MIC was found to be 32 µg/mL (≈ 72.6 µM) in [1]; 8 µg/mL (≈ 18.1 µM) in experiment [2]; 32 µg/mL (≈ 72.6 µM) in [3]; 8 µg/mL (≈ 18.1 µM) in experiment [4]; 32 µg/mL (≈ 72.6 µM) in experiment [5]; 32 µg/mL (≈ 72.6 µM) in experiment [6]. Further, the minimal inhibitory concentration (MIC) in experiment [7] is 32 µg/mL (≈ 72.6 µM); in experiment [8] it was 64 µg/mL (≈ 145 µM); in experiment [9] it was 2 µg/mL (≈ 4.54 µM); in [10], 1 µg/mL (≈ 2.27 µM); in [11] it was 4 µg/mL (≈ 9.07 µM).
Consider `Cc1cc(=O)oc2cc(/N=C3/S/C(=C\c4ccc[nH]4)C(=O)N3CCO)ccc12`, for which the MIC in [1] was found to be 64 µg/mL (≈ 162 µM); in [2], 64 µg/mL (≈ 162 µM); in [3], 128 µg/mL (≈ 324 µM); in experiment [4], 128 µg/mL (≈ 324 µM); in [5], 64 µg/mL (≈ 162 µM); in experiment [6], 64 µg/mL (≈ 162 µM). Besides, the MIC amounted to 2 µg/mL (≈ 5.06 µM) in experiment [7]; 128 µg/mL (≈ 324 µM) in experiment [8]; 256 µg/mL (≈ 647 µM) in experiment [9]; 32 µg/mL (≈ 80.9 µM) in experiment [10]; 4 µg/mL (≈ 10.1 µM) in [11].
`Cc1cc(=O)oc2cc(/N=C3/S/C(=C\c4ccc(Cl)cc4Cl)C(=O)N3CCO)ccc12`: the minimum inhibitory concentration (MIC) amounted to 256 µg/mL (≈ 539 µM) in experiment [1]; 32 µg/mL (≈ 67.3 µM) in experiment [2]; 128 µg/mL (≈ 269 µM) in experiment [3]; 128 µg/mL (≈ 269 µM) in experiment [4]; 128 µg/mL (≈ 269 µM) in [5]; 64 µg/mL (≈ 135 µM) in [6]. For the same compound, the minimal inhibitory concentration (MIC) in experiment [7] amounted to 256 µg/mL (≈ 539 µM); in [8] it was 256 µg/mL (≈ 539 µM); in [9], 64 µg/mL (≈ 135 µM); in [10], 128 µg/mL (≈ 269 µM); in experiment [11] it was 4 µg/mL (≈ 8.41 µM).
As for `Cc1ccc(/C=C2\S/C(=N/c3ccc4c(C)cc(=O)oc4c3)N(CCO)C2=O)c(C)c1`, the MIC in experiment [1] is 64 µg/mL (≈ 147 µM); in experiment [2], 128 µg/mL (≈ 295 µM); in experiment [3] it was 128 µg/mL (≈ 295 µM); in [4], 64 µg/mL (≈ 147 µM); in [5], 64 µg/mL (≈ 147 µM); in experiment [6], 128 µg/mL (≈ 295 µM). For the same compound, the minimal inhibitory concentration (MIC) was 64 µg/mL (≈ 147 µM) in [7]; 128 µg/mL (≈ 295 µM) in experiment [8]; 16 µg/mL (≈ 36.8 µM) in experiment [9]; 256 µg/mL (≈ 589 µM) in [10]; 1 µg/mL (≈ 2.3 µM) in experiment [11].
